According to US9902735B2, “Heteroaryl substituted compounds as RORγ inhibitors” (GlaxoSmithKline Intellectual Property Developement Limited, priority 2014, dated 2018):

Key:
[1] = biological target: T1, Human RORγ Ligand Binding Domain (RORγ-LBD) (Homo sapiens, UniProt P51449); assay: Dual Fluorescence Energy Transfer (FRET) assay; type: biochemical; conditions: mean of multiple test results if tested more than once; read-out: pIC50 in the dual FRET assay (converted)
T1 construct: made in house; host or cells: E. coli BL21(DE3)
T1 sequence (P51449 263-518): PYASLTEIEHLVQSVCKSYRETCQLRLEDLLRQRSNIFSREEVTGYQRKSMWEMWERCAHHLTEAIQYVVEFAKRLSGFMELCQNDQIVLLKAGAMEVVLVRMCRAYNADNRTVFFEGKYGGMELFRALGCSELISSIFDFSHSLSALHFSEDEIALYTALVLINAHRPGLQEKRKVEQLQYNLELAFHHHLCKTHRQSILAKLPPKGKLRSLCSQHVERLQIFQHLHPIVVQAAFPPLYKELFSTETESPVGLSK
Description: This assay is based on the knowledge that nuclear receptors interact with cofactors (transcription factors) in a ligand dependent manner. RORγ is a typical nuclear receptor in that it has an AF2 domain in the ligand binding domain (LBD) which interacts with co-activators. The sites of interaction have been mapped to the LXXLL motifs in the co-activator SRC1(2) sequences. Short peptide sequences containing the LXXLL motif mimic the behavior of full-length co-activator.
The assay measures ligand-mediated interaction of the co-activator peptide with the purified bacterial-expressed RORγ ligand binding domain (RORγ-LBD) to indirectly assess ligand binding. RORγ has a basal level of interaction with the co-activator SRC1(2) in the absence of ligand, thus it is possible to find ligands that inhibit or enhance the RORγ/SRC1(2) interaction.
Human RORγ Ligand Binding Domain (RORγ-LBD) was expressed in E. coli strain BL21(DE3) as an amino-terminal polyhistidine tagged fusion protein. DNA encoding this recombinant protein was sub-cloned into a modified pET21a expression vector (Novagen). […]
Approximately 50 g E. coli cell pellet was resuspended in 300 mL of lysis buffer (30 mM imidazole pH 7.0 and 150 mM NaCl). […] After washing to baseline absorbance with the equilibration buffer, the column was developed with a gradient from 30 to 500 mM imidazole pH 7.0. […]

RORγ-LBD = biological target: T2, RORγ-LBD (Homo sapiens, UniProt P51449); assay: Fluorescence Energy Transfer (FRET) assay; type: biochemical; conditions: mean of multiple test results if tested more than once; read-out: pIC50 in the FRET assay (converted)
T2 construct: adding an appropriate amount of biotinylated RORγ-LBD and APC-labeled streptavidin
T2 sequence (P51449 269-508 limits assumed): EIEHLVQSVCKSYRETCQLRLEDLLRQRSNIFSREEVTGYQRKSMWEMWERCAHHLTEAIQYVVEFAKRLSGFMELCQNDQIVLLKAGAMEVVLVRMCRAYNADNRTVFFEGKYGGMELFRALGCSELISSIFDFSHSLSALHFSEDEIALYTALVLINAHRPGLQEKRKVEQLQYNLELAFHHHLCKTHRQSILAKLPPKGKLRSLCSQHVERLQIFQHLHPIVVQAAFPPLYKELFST
Experimental: The assays were performed in an assay buffer consisting of 50 mM NaF, 50 mM 3-(N-morpholino)propanesulfonic acid, pH 7.5, 50 μM 3-[(3-cholamidopropyl)dimethylammonio]-propanesulfonate, 0.1 mg/mL bovine serum albumin, and 10 mM dithiothreitol in 384-well plates (Greiner 784076, Longwood, Fla.). The total volume was 10 μL/well. The europium-labeled SRC1 solution was prepared by adding an appropriate amount of biotinylated SRC and europium labeled streptavidin (PerkinElmer Life and Analytical Sciences, Waltham, Mass.) into assay buffer, with final concentrations of 27 and 3.3 nM, respectively. The allophycocyanin (APC)-labeled-LBD solution was prepared by adding an appropriate amount of biotinylated RORγ-LBD and APC-labeled streptavidin (CR130-100; PerkinElmer Life and Analytical Sciences) at a final concentration of 33 nM each. After 15 min of incubation at room temperature, a 20-fold excess of biotin was added to block the remaining free streptavidin. […] The plates were incubated for 1 h at room temperature and then read on ViewLux (PerkinElmer Life and Analytical Sciences) in LANCE mode configured for europeum-APC labels. Data were collected and analyzed by Activitybase.

`Cc1ncc(C(=O)Nc2cc(Cl)cc(CN3CCN(C(=O)CC4CC4)[C@@H](C)C3)c2C)cc1F` [Example 80, (S)—N-(5-chloro-3-((4-(2-cyclopropylacetyl)-3-methylpiperazin-1-yl)methyl)-2-methylphenyl)-5-fluoro-6-methylnicotinamide] gave an IC50 [1] of about 100 nM and an IC50 (RORγ-LBD) of about 50.1 nM.
